# Experimental data taken from US8106055B2, “Substituted amide compounds” (Gruenenthal GmbH, priority 2007, dated 2012).
# Assays:
# [1] = molecular target: T1, serotonin (5-HT) reuptake (Rattus norvegicus, UniProt P31652); test: Inhibition of serotonin (5HT) reuptake in synaptosomes from rat brain; assay type: biochemical; conditions: test concentration of 10 μM; for 5-HT (inhibition of reuptake of serotonin, % inhibition): 10 µM; for inhibition at 10 µM: read-out: 5-HT (inhibition of reuptake of serotonin, % inhibition)
# T1 construct: synaptosomes are freshly isolated from areas of the rat brain; from tissue; host or cells: rat brain synaptosomes (P2 fraction)
# T1 sequence (P31652 whole entry): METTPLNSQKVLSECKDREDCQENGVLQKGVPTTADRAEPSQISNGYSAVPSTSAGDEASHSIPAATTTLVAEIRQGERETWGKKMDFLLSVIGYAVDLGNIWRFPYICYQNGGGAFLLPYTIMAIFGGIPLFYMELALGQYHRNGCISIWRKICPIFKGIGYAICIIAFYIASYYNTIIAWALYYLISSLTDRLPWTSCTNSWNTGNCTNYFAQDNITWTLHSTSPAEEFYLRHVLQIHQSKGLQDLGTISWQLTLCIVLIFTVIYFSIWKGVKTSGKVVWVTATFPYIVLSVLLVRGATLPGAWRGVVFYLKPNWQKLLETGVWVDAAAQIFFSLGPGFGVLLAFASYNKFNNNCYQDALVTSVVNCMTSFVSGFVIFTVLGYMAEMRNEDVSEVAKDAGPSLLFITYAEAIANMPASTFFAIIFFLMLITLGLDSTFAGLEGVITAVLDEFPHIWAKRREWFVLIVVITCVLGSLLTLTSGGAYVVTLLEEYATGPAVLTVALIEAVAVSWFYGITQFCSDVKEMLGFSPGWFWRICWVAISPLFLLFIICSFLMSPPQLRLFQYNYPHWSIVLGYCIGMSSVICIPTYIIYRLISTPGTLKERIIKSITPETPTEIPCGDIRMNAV
# Method: Binding data of the compounds on the μ opioid receptor and data on the inhibition of reuptake of serotonin (5-HT) are given in Table 1. The data for the μ receptor were measured at a test concentration of 1 μM, and those for the serotonin reuptake at 10 μM. The values are stated in % inhibition.
# Inhibition of Serotonin (5HT) Reuptake
# In order to be able to carry out these in vitro studies, synaptosomes are freshly isolated from areas of the rat brain. In each case a so-called “P2” fraction prepared in accordance with the instructions of Gray and Whittaker (E. G. Gray and V. P. Whittaker (1962) J. Anat. 76, 79-88) is prepared. For the NA uptake, these vesicular particles are isolated from the hypothalamus of male rat brains.
# A detailed description of the method can be found in the literature (M. Ch. Frink, H.-H. Hennies, W. Englberger, M. Haurand and B. Wilffert (1996) Arzneim.-Forsch./Drug Res. 46 (III), 11, 1029-1036).
# human μ opiate receptor = molecular target: T2, human μ opiate receptor (Homo sapiens, UniProt P35372); test: Affinity for the human μ opiate receptor ([3H]-naloxone displacement, CHO-K1 receptor membrane preparation, SPA); assay type: binding; conditions: for μ (binding on the μ opioid receptor, % inhibition): test concentration of 1 μM; for inhibition at 1 µM: 1.5 h, read-out: μ
# T2 construct: purchased PerkinElmer Life Sciences, Zaventem, Belgium RB-HOM; host or cells: CHO-K1 cells (membrane preparation)
# T2 sequence (P35372 whole entry): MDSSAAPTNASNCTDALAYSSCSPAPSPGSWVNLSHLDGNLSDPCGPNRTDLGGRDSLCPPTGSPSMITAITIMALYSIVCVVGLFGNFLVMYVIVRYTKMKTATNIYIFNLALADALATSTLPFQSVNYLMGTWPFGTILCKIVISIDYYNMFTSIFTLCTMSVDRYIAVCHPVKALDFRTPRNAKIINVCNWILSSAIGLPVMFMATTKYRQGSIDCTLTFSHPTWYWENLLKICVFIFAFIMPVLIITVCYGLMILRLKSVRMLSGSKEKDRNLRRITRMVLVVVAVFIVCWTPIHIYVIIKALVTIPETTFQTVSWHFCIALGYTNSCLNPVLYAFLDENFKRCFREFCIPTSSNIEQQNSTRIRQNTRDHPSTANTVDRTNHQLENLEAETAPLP
# How it was run: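 Membranes from CHO-K1 cells expressing the human μ opiate receptor (15-40 μg protein per well) were incubated with test compound, 1 nmol/l [3H]-naloxone and WGA-SPA beads in 50 mmol/l Tris-HCl with 0.06% BSA for 90 minutes at room temperature. Values are % inhibition of specific binding at 1 μmol/l.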
# [2] = molecular target: T3, bradykinin 1 receptor (B1R) of the rat (Rattus norvegicus, UniProt P97583); test: Functional investigation on the rat bradykinin 1 receptor (B1R), Ca2+ FLIPR assay in CHO K1 rB1R cells; assay type: cell-based; conditions: test substance 10 μM; for inhibition at 10 µM: CHO-K1, B1R antagonism rat, % inhibition compared with the maximum achievable inhibition, read-out: B1R Ant. r [10 μM] % Inhibition
# T3 construct: expressed in transfected cells; host or cells: CHO K1 cells
# T3 sequence (P97583 1-337): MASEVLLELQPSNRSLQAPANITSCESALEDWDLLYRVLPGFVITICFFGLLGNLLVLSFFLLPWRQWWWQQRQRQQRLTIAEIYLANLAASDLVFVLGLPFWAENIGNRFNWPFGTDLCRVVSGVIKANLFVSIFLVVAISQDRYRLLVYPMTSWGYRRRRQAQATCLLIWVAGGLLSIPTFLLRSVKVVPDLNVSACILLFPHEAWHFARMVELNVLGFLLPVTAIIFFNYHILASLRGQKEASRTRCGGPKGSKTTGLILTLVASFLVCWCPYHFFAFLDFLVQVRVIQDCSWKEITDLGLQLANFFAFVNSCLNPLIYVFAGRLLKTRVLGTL
# How it was run: (§1)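 Cells were dye-loaded with Fluo-4 plus probenecid, then test substances added and Ca2+ influx compared with agonist control for % activation. After 10-20 min, EC80 agonist (Lys-Des-Arg9-bradykinin human; Des-Arg9-bradykinin rat) was applied; suppression gave % inhibition and IC50 values.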
# [3] = molecular target: T4, human bradykinin 1 receptor (B1R) (Homo sapiens, UniProt P46663); test: Functional investigation on the human bradykinin 1 receptor (B1R), Ca2+ FLIPR assay in CHO K1 hB1R cells; assay type: cell-based; conditions: test substance 10 μM; for inhibition at 10 µM: CHO-K1, B1R antagonism human, % inhibition compared with the maximum achievable inhibition, read-out: B1R Ant. h [10 μM] % Inhibition
# T4 construct: expressed in transfected cells; host or cells: CHO K1 cells
# T4 sequence (P46663 1-353): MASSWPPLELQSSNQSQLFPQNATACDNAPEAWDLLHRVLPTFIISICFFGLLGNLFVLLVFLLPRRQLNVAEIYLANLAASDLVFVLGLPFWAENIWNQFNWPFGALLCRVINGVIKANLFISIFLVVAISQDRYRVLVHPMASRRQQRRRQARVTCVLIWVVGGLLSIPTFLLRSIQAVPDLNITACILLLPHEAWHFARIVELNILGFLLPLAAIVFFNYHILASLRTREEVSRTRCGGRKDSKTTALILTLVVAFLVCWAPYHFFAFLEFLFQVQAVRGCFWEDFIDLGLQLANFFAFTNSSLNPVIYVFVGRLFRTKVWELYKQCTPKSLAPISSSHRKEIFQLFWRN
# How it was run: as §1
# [4] = Table 3, to be read in the same way as Table 1, test concentration 1 μM
Molecule,inhibition at 10 µM [2],inhibition at 10 µM [3],inhibition at 1 µM (human μ opiate receptor; [4]),other results
"CC(Oc1ccccc1)C(=O)NCC1CCC(C(c2ccc(Cl)cc2)N(C)C)CC1 (single isomer, unassigned) [Example 237]",–,–,–,"5-HT (inhibition of reuptake of serotonin, % inhibition) [1]: 52%; μ (binding on the μ opioid receptor, % inhibition) (human μ opiate receptor): 81%"
"CC(Oc1ccccc1)C(=O)NCC1CCC(C(c2ccc(Cl)cc2)N(C)C)CC1 (single isomer, unassigned) [Example 238]",–,–,–,"5-HT (inhibition of reuptake of serotonin, % inhibition) [1]: 38%; μ (binding on the μ opioid receptor, % inhibition) (human μ opiate receptor): 81%"
"CC(Oc1ccccc1)C(=O)NCC1CCC(C(c2cccs2)N(C)C)CC1 (centres unmarked) [Example 2, N-((4-((dimethylamino)(thiophen-2-yl)methyl)cyclohexyl)methyl)-2-phenoxypropanamide]",–,–,–,inhibition at 10 µM [1]: 69%
"CC(Oc1ccccc1)C(=O)NCC1CCC(C(c2ccccc2)N(C)C)CC1 (centres unmarked) [Example 50, N-((4-((dimethylamino)(phenyl)methyl)cyclohexyl)methyl)-2-phenoxypropanamide]",–,–,–,inhibition at 10 µM [1]: 65%
"CC(Oc1ccccc1)C(=O)NCC1CCC(C(c2cccc(F)c2)N(C)C)CC1 (centres unmarked) [Example 79, N-((4-((dimethylamino)(3-fluorophenyl)methyl)cyclohexyl)methyl)-2-phenoxypropanamide]",–,–,–,"5-HT (inhibition of reuptake of serotonin, % inhibition) [1]: 64%"
"CC(Oc1ccccc1)C(=O)NCC1CCC(C(c2cccc(F)c2)N(C)C)CC1 (centres unmarked) [Example 122, N-((4-((dimethylamino)(3-fluorophenyl)methyl)cyclohexyl)methyl)-2-phenoxypropanamide]",–,–,–,"5-HT (inhibition of reuptake of serotonin, % inhibition) [1]: 57%"
"CN(C)C(c1ccccc1)C1CCC(CCNC(=O)COCc2ccccc2)CC1 (centres unmarked) [Example 134, 2-(benzyloxy)-N-(2-(4-((dimethylamino)(phenyl)-methyl)cyclohexyl)ethyl)acetamide]",–,–,–,inhibition at 10 µM [1]: 67%
"CC(Oc1ccccc1)C(=O)NC1CCC(C(c2cccc(F)c2)N(C)C)CC1 (centres unmarked) [Example 153, N-(4-((dimethylamino)(3-fluorophenyl)methyl)cyclohexyl)-2-phenoxypropanamide]",–,–,–,inhibition at 10 µM [1]: 27%
"CC(Oc1ccccc1)C(=O)NC1CCC(C(c2ccccc2)N(C)C)CC1 (centres unmarked) [Example 181, N-(4-((dimethylamino)(phenyl)methyl)cyclohexyl)-2-phenoxypropanamide]",–,–,–,inhibition at 10 µM [1]: 46%
"COc1cc(C)c(S(=O)(=O)N(C)CCOCC(=O)N2CCC(C(Cc3ccccc3)N3CCN(C)CC3)CC2)c(C)c1 (centres unmarked) [Example 803, 4-methoxy-N,2,6-trimethyl-N-(2-(2-(4-(1-(4-methylpiperazin-1-yl)-2-phenylethyl)piperidin-1-yl)-2-oxoethoxy)ethyl)benzenesulfonamide]",99%,108%,13%,–
"COc1cc(C)c(S(=O)(=O)N(C)CCOCC(=O)N2CCC(C(c3ccc(F)cc3)N3CCN(C)CC3)CC2)c(C)c1 (centres unmarked) [Example 804, N-(2-(2-(4-((4-fluorophenyl)(4-methylpiperazin-1-yl)methyl)piperidin-1-yl)-2-oxoethoxy)ethyl)-4-methoxy-N,2,6-trimethylbenzenesulfonamide]",100%,105%,9%,–
"COc1cc(C)c(S(=O)(=O)N2CCCCC2COCC(=O)N2CCC(C(c3ccc(F)cc3)N3CCN(C)CC3)CC2)c(C)c1 (centres unmarked) [Example 805, 1-(4-((4-fluorophenyl)(4-methylpiperazin-1-yl)methyl)piperidin-1-yl)-2-((1-(4-methoxy-2,6-dimethylphenylsulfonyl)piperidin-2-yl)methoxy)ethanone]",99%,103%,4%,–
"COc1cc(C)c(S(=O)(=O)N2CCCCC2COCC(=O)N2CCC(C(CCc3ccccc3)N3CCN(C)CC3)CC2)c(C)c1 (centres unmarked) [Example 806, 2-((1-(4-methoxy-2,6-dimethylphenylsulfonyl)piperidin-2-yl)methoxy)-1-(4-(1-(4-methylpiperazin-1-yl)-3-phenylpropyl)piperidin-1-yl)ethanone]",99%,109%,12%,–
"COc1cc(C)c(S(=O)(=O)N2CCCCC2COCC(=O)N2CCC(C(c3ccccc3)N3CCN(C)CC3)CC2)c(C)c1 (centres unmarked) [Example 807, 2-((1-(4-methoxy-2,6-dimethylphenylsulfonyl)piperidin-2-yl)methoxy)-1-(4-((4-methylpiperazin-1-yl)(phenyl)methyl)piperidin-1-yl)ethanone]",98%,105%,11%,–
"CN1CCN(C(c2ccc(F)cc2)C2CCN(C(=O)COCC3CCc4ccccc4N3S(=O)(=O)c3ccc(Cl)c(Cl)c3)CC2)CC1 (centres unmarked) [Example 808, 2-((1-(3,4-dichlorophenylsulfonyl)-1,2,3,4-tetrahydroquinolin-2-yl)methoxy)-1-(4-((4-fluorophenyl)(4-methylpiperazin-1-yl)methyl)piperidin-1-yl)ethanone]",75%,122%,12%,–
"CN1CCN(C(c2cccc(F)c2)C2CCN(C(=O)COCC3CCc4ccccc4N3S(=O)(=O)c3ccc(Cl)c(Cl)c3)CC2)CC1 (centres unmarked) [Example 809, 2-((1-(3,4-dichlorophenylsulfonyl)-1,2,3,4-tetrahydroquinolin-2-yl)methoxy)-1-(4-((3-fluorophenyl)(4-methylpiperazin-1-yl)methyl)piperidin-1-yl)ethanone]",87%,109%,6%,–
"CN1CCN(C(c2ccccc2)C2CCN(C(=O)COCC3CCc4ccccc4N3S(=O)(=O)c3ccc(Cl)c(Cl)c3)CC2)CC1 (centres unmarked) [Example 810, 2-((1-(3,4-dichlorophenylsulfonyl)-1,2,3,4-tetrahydroquinolin-2-yl)methoxy)-1-(4-((4-methylpiperazin-1-yl)(phenyl)methyl)piperidin-1-yl)ethanone]",97%,102%,19%,–
"CN1CCN(C(CCc2ccccc2)C2CCN(C(=O)COCC3CCc4ccccc4N3S(=O)(=O)c3ccc(Cl)c(Cl)c3)CC2)CC1 (centres unmarked) [Example 811, 2-((1-(3,4-dichlorophenylsulfonyl)-1,2,3,4-tetrahydroquinolin-2-yl)methoxy)-1-(4-(1-(4-methylpiperazin-1-yl)-3-phenylpropyl)piperidin-1-yl)ethanone]",96%,104%,20%,–
"CN1CCN(C(Cc2ccccc2)C2CCN(C(=O)COCC3CCc4ccccc4N3S(=O)(=O)c3ccc(Cl)c(Cl)c3)CC2)CC1 (centres unmarked) [Example 812, 2-((1-(3,4-dichlorophenylsulfonyl)-1,2,3,4-tetrahydroquinolin-2-yl)methoxy)-1-(4-(1-(4-methylpiperazin-1-yl)-2-phenylethyl)piperidin-1-yl)ethanone]",98%,105%,37%,–
"N-((4-(morpholino(phenyl)methyl)cyclohexyl)methyl)-2-((1-(2,4,6-trichlorophenylsulfonyl)piperidin-3-yl)methoxy)acetamide [Example 713]",–,–,–,"B1R Ant. r [10 μM] % Inhibition ([2]; B1R antagonism rat, Ca2+ FLIPR, CHO K1 rB1R cells): 16%; B1R Ant. h [10 μM] % Inhibition ([3]; B1R antagonism human, Ca2+ FLIPR, CHO K1 hB1R cells): −15%; μ (human μ opiate receptor; [4]): 14 % inhibition"
